Results from article PMC2939023, “Attenuated T Cell Responses to a High-Potency Ligand In Vivo” (PLoS Biology, 2010).
“Also recorded” adds a separate entry of the source. Where no end group is shown, it is not given here.

Assays:
OT-1 TCR = OT-1 TCR ligands, Listeria monocytogenes; in words; ref [25]; cited from earlier work
Source text: The reason we observed attenuation at the high end of the ligand potency spectrum may be because we were able to examine T cell responses to a superagonist peptide, which possibly exceeds a ligand potency threshold at which T cell attenuation is observed. Attempts to find other strong 5C.C7 TCR ligands, which would facilitate examination o ...

[1] = test system: 5C.C7 RAG2−/− lymphocytes; type: cell-based, mouse; conditions: 3 h
Experimental: Cells were cultured in a 37°C humidified chamber with 5% C0_2 in complete RPMI1640 (supplemented with 10% FCS, […], 100 U/mL penicillin and streptomycin, 2 µM 2-mercaptoethanol). Single-cell suspensions were prepared from lymph nodes harvested from 5C.C7 RAG2-deficient mice (routinely >90% Vα11+Vβ3+ by flow cytometry) and stimulated in triplicate in 96-well round-bottom plates with irradiated (2,000 rad) B10.A splenocytes and the indicated peptides for 60 h. Proliferation was monitored by the addition of ^3H-methyl-thymidine (1 µCi/well). Cells were harvested onto glass-fiber filters using a Tomtec harvester, and filters were counted using a MicroBeta scintillation counter (Perkin-Elmer).

5C.C7 T cells = assay: In vivo antigen persistence (division of later transferred 5C.C7 T cells); design: species or system mouse; conditions: peptide injected 4, 2, 1, 0 wk before transfer; division at 48 h; in words
Source text: We addressed potential differential in vivo antigen persistence by injecting MCC or K5 peptide at various times prior to transfer of CFSE-labeled 5C.C7 T cells (Figure S7). In this experiment, the extent of division of the transferred T cells serves as a readout of amount of antigen present. […] We then considered the possibility that the blunted responses were occurring because the amount of K5 pMHC complexes was limiting in vivo. In order to directly examine the stimulatory function of in vivo–pulsed APCs, we used irradiated splenic DCs isolated from mice immunized with the different peptides to activate naïve 5C.C7 T cells in vitro, without the addition of exogenous peptide (Figure 2B,C).
Supplementary file pbio.1000481.s007.eps: Figure S7 MCC and K5 peptides persist equally in vivo. B10.A mice were immunized with the indicated peptides at 4, 2, 1, and 0 wk before adoptive transfer of CFSE-labeled 5C.C7 T cells. 5C.C7 T cell division was analyzed at 48 h after transfer as a measure of peptide antigen persistence over time. All histograms are gated on CD4^+CD45.1^+ 5C.C7 T cells. Data shown are representative of two mice per condition and two experiments. (0.99 MB EPS) Click here for additional data file.

Sequence	Potency of T cell responses in vitro and in vivo (OT-1 TCR)	EC50 [1] [µM]	In vivo peptide antigen persistence (5C.C7 T cells)
SIINFEKL [natural OT-1 TCR ligand]	induced the most robust response; also recorded: exhibited the most potent responses in vitro and in vivo		
ANERADLIAYLKQASK [102S]		0.16	
ANERADLIAYPKAATKF [K3]		0.0249	
ANERADLIAYLKQATK [MCC, moth cytochrome c (MCC) peptide]		0.0378	persist equally and for a few weeks in vivo
ANERADLIAYFKAATKF [K5]		0.0175	persist equally and for a few weeks in vivo
